# Literature values, collected in US6656473B2, “Tryptophan source from plants and uses thereof” (priority 2000, dated 2003).
# Biological target: plasma albumin (Homo sapiens, UniProt P02768)
# Details: after absorption
# Sequence of plasma albumin (P02768 25-609): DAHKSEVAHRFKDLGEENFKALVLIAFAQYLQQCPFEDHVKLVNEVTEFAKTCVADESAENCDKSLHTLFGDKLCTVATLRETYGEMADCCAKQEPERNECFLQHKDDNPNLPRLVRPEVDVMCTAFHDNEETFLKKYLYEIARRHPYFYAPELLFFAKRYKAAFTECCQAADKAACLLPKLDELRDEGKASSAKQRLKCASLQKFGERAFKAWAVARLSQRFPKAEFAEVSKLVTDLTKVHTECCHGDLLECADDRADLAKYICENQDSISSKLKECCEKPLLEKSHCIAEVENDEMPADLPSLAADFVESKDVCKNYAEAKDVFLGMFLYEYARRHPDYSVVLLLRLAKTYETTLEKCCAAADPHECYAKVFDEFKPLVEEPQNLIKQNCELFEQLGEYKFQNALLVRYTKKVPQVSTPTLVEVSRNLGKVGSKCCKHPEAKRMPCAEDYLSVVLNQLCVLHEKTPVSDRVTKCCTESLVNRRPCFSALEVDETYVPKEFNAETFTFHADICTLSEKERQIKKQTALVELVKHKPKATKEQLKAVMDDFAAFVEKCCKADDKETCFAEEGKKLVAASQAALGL
smiles,measurement,value
N[C@@H](Cc1c[nH]c2ccccc12)C(=O)O [tryptophan],Share circulating as free tryptophan,20%
same,Share circulating in the blood bound to plasma albumin,approximately 80%
